Common to all, as to assay type: cell-based, human
For data set [1], the system named is 518A2 cells. Put plainly: ROS generation, NBT assay, 518A2. The note with it: 50 μM, relative to untreated controls (1%), mean ± SD. Here is the method: (§1) The generation of reactive oxygen species (ROS) in tumor cells is a sign of cellular stress resulting in severe damage of cellular components such as DNA, lipids or proteins.
(§2) For the NBT assay, HL-60 cells (0.5·10^6/mL) were plated in 96-well tissue culture plates, and test compounds were added after 24 h incubation at 37° C. to achieve a final concentration of 50 μM. […] After removal of the cell medium by centrifugation, the cells in each well were resuspended in 100 μL 0.1% NBT, and the plates were placed in the incubator for 1 h. The reduced NBT was solubilized with 100 μl 2 M KOH and 130 μl DMSO for 30 min. The absorbance was measured for each well at 630 and 405 nm (background) using an ELISA plate reader. The adherent 518A2 cells (0.5·10^4/mL) were seeded out in 96-well tissue culture plates after trypsinization and incubation for 24 h at 37° C. to allow attachment, then treated similarly, only that the medium was removed prior to incubation with NBT for 4 h. All experiments were carried out in quadruplicate.

The test system of data set [2] is HL-60 cells. Put plainly: ROS generation, NBT assay, HL-60. The conditions noted are these: 50 μM, relative to untreated controls (1%), mean ± SD. Here is the method: as §1, §2
Data set [3] deals with 518A2 cells. Put plainly: Mitochondrial membrane assay (JC-1), 518A2. The conditions noted are these: 5 μM, red/green fluorescence ratio relative to untreated controls (100%), mean ± SD. Here is the method: (§3) Values represent means of four independent experiments±standard deviation.
(§4) Changes in mitochondrial membrane potential were determined by the Mitochondrial Membrane Detection Kit (Stratagene, La Jolla, Calif., USA) according to the manufacturer's procedure. 72 h following treatment with 5 μM of the test compounds, cell samples were centrifuged at 400 g for 5 min. The pellets were resuspended in 500 μL diluted JC-1 solution, incubated at 37° C. for 15 min (HL-60) and then centrifuged again for 5 min at 400 g. After washing, the pellets were resuspended in 100 μL PBS and transferred into the wells of a black 96-well plate. The red (λex=585 nm, λem=590 nm) and green (λex=510 nm, λem=527 nm) fluorescence intensities were measured and their ratio was calculated.

For data set [4], the system named is HL-60 cells. The data set can be described thus: Mitochondrial membrane assay (JC-1), HL-60. The conditions noted are these: 5 μM, red/green fluorescence ratio relative to untreated controls (100%), mean ± SD. Here is the method:
as §3, §4

In data set [5] the test system is KB-V1/Vbl cervical carcinoma cells. The data set can be described thus: MTT cell growth inhibition, KB-V1/Vbl. The conditions noted are these: KB-V1/Vbl (Pgp+). Here is the method: The MCF-7/Topo cells were grown in E-MEM medium (Sigma) supplemented with 2.2 g/L NaHCO3, 110 mg/L sodium pyruvate and 5% FCS. The cells were maintained in a moisture-saturated atmosphere (5% CO2) at 37° C. in 75-mL culture flasks (Nunc, Wiesbaden, Germany). They were serially passaged following trypsinisation by 0.05% trypsin/0.02% EDTA (PAA laboratories, Clbe, Germany). Mycoplasma contamination was routinely monitored, and only mycoplasma-free cultures were used.
HL-60 leukemia cells (5×10^5/mL), and cells (5×10^4/mL) of 518A2 melanoma, HT-29 colon, KB-V1/Vbl cervix and MCF-7/Topo breast carcinoma were seeded out in 96-well tissue culture plates and cultured for 24 h. […] Blank and solvent controls were treated identically. MTT in phosphate buffered saline (5 mg/mL) was added to a final concentration of 0.05% (HL-60, 518A2) or 0.1% (HT-29, KB-V1/Vbl, MCF-7/Topo). After 2 h the formazan precipitate was dissolved in 10% sodium dodecylsulfate in DMSO containing 0.6% acetic acid in the case of the HL-60 cells. For the adherent 518A2, KB-V1/Vbl, MCF-7/Topo and HT-29 cells the microplates were swiftly turned to discard the medium before adding the solvent mixture. The microplates were gently shaken in the dark for 30 min and absorbance at 570 nm and 630 nm (background) was measured with an ELISA plate reader. All experiments were carried out in quadruplicate; the percentage of viable cells was calculated as the mean±SD with controls set to 100%.

Data set [6] deals with MCF-7/Topo breast carcinoma cells. The data set can be described thus: MTT cell growth inhibition, MCF-7/Topo. The note with it: MCF-7/Topo (BCRP+). Here is the method: The effects of the compounds 5b, 6b, 8a, and 8e according to the present invention and of the reference compound 25f (Wang et al., J. Med. Chem. 2002, 45, 1697-1711) on cells of the following human tumor cell lines were evaluated: 518A2 melanoma, HL-60 leukemia, HT-29 colon carcinoma, KB-V1/Vbl cervical carcinoma, and MCF-7/Topo breast carcinoma.
The HL-60 cells were obtained from the German Collection of Biological Material (DSMZ), Braunschweig, Germany; the human 518A2 melanoma cells as well as the testicular germ cell tumor cell lines H12.1 and 1411HP were cultured in the department of oncology and hematology, Medical Faculty of the Martin-Luther University, Halle, Germany; the KBV1/Vbl and the MCF-7/Topo cells were obtained from the Institute of Pharmacy of the University Regensburg, Germany; and the colon HT-29 cells from the University Hospital Erlangen, Germany. The HL-60 and the HT-29 cells were grown in RPMI-1640 medium supplemented with 10% fetal calf serum (FCS), 100 IU/mL penicillin G, 100 μg/mL streptomycin sulfate, 0.25 μg/mL amphotericin B and 250 μg/mL gentamycine (all from Gibco, Egenstein, Germany). The 518A2 and the KB-V1/Vbl cells were cultured in Dulbecco's Modified Eagle Medium (D-MEM, Gibco) containing 10% FCS, 100 IU/mL penicillin G, 100 μg/mL streptomycin sulfate, 0.25 μg/mL amphotericin B and 250 μg/mL gentamycine. The MCF-7/Topo cells were grown in E-MEM medium (Sigma) supplemented with 2.2 g/L NaHCO3, 110 mg/L sodium pyruvate and 5% FCS. The cells were maintained in a moisture-saturated atmosphere (5% CO2) at 37° C. in 75-mL culture flasks (Nunc, Wiesbaden, Germany). They were serially passaged following trypsinisation by 0.05% trypsin/0.02% EDTA (PAA laboratories, Clbe, Germany). Mycoplasma contamination was routinely monitored, and only mycoplasma-free cultures were used.
MTT [3-(4,5-dimethylthiazol-2-yl)-2,5-diphenyltetrazolium bromide](ABCR) was used to identify viable cells which reduce it to a violet formazan (Mosmann, J. Immunol. Methods 1983, 65, 55-63). HL-60 leukemia cells (5×10^5/mL), and cells (5×10^4/mL) of 518A2 melanoma, HT-29 colon, KB-V1/Vbl cervix and MCF-7/Topo breast carcinoma were seeded out in 96-well tissue culture plates and cultured for 24 h. Incubation (5% CO2, 95% humidity, 37° C.) of the cells following treatment with the test compounds was continued for 24, 48 or 72 h. Blank and solvent controls were treated identically. […] The microplates were gently shaken in the dark for 30 min and absorbance at 570 nm and 630 nm (background) was measured with an ELISA plate reader. All experiments were carried out in quadruplicate; the percentage of viable cells was calculated as the mean±SD with controls set to 100%.

The text below walks through data of patent US8980933B2, “Combretastatin analogs for use in the treatment of cancer” (Universitat Bayreuth, priority 2010, dated 2015).

Turning to `COc1ccc(-c2c(-c3cc(Br)c(OC)c(OC)c3)ncn2C)cc1F` [compound 6c, 1-Methyl-4-(3′-bromo-4′,5′-dimethoxyphenyl)-5-(3″-fluoro-4″-methoxyphenyl)-imidazole], the “NBT Reduction [%] in 518A2 cells after 24 h” value with 518A2 cells [1] is recorded as 1.4 ± 0.3%. Also, the “NBT Reduction [%] in HL-60 cells after 24 h” value with HL-60 cells [2] worked out at 3.9 ± 0.1%. Moreover, in the data set with 518A2 cells [3], the “Intact mitochondria [%] in 518A2 cells after 72 h” value is given as 89 ± 10%. Also, the “Intact mitochondria [%] in HL-60 cells after 72 h” value with HL-60 cells [4] stood at 60 ± 15%.

As to `COc1ccc(-c2c(-c3cc(N)c(OC)c(OC)c3)ncn2C)cc1F` [8d, 1-Methyl-4-(3′-amino-4′,5′-dimethoxyphenyl)-5-(3″-fluoro-4-methoxyphenyl)-imidazole], the “NBT Reduction [%] in 518A2 cells after 24 h” value in the data set with 518A2 cells [1] is 1.2 ± 0.1%. For the same molecule, in the data set with HL-60 cells [2], the “NBT Reduction [%] in HL-60 cells after 24 h” value came out at 1.4 ± 0.2%. Besides, in the data set with 518A2 cells [3], the “Intact mitochondria [%] in 518A2 cells after 72 h” value is recorded as 98 ± 15%. In addition, in the data set with HL-60 cells [4], the “Intact mitochondria [%] in HL-60 cells after 72 h” value was determined as 90 ± 22%.

As to `COc1ccc(-c2c(-c3cc(Cl)c(OC)c(OC)c3)ncn2C)cc1F` [compound 5c, 1-Methyl-4-(3′-chloro-4′,5′-dimethoxyphenyl)-5-(3″-fluoro-4-methoxyphenyl)-imidazole], the “NBT Reduction [%] in 518A2 cells after 24 h” value with 518A2 cells [1] came to 1.6 ± 0.1%. Further, the “NBT Reduction [%] in HL-60 cells after 24 h” value with HL-60 cells [2] is reported as 4.8 ± 0.5%. The “Intact mitochondria [%] in 518A2 cells after 72 h” value with 518A2 cells [3] came to 84 ± 6%. Moreover, the “Intact mitochondria [%] in HL-60 cells after 72 h” value with HL-60 cells [4] turned out to be 55 ± 7%.

As to `COc1cc(-c2ncoc2-c2ccc(N(C)C)cc2)cc(N)c1OC` [8b, 4-(3′-Amino-4′,5′-dimethoxyphenyl)-5-(4″-N,N-dimethylaminophenyl)-oxazole], the “NBT Reduction [%] in 518A2 cells after 24 h” value in the data set on 518A2 cells [1] is 1.4 ± 0.3%. The “NBT Reduction [%] in HL-60 cells after 24 h” value in the data set on HL-60 cells [2] turned out to be 3.3 ± 0.2%. In addition, the “Intact mitochondria [%] in 518A2 cells after 72 h” value with 518A2 cells [3] was determined as 82 ± 8%. The “Intact mitochondria [%] in HL-60 cells after 72 h” value in the data set with HL-60 cells [4] is listed as 62 ± 12%.

With `COc1cc(-c2ncn(C)c2-c2ccc(N(C)C)cc2)cc(Cl)c1OC` [compound 5d, 1-Methyl-4-(3′-chloro-4′,5′-dimethoxyphenyl)-5-(4″-N,N-dimethylaminophenyl)-imidazole], the “NBT Reduction [%] in 518A2 cells after 24 h” value with 518A2 cells [1] turned out to be 2.4 ± 0.4%. Besides, the “NBT Reduction [%] in HL-60 cells after 24 h” value in the data set with HL-60 cells [2] was 6.0 ± 0.9%. Also, in the data set on 518A2 cells [3], the “Intact mitochondria [%] in 518A2 cells after 72 h” value is 80 ± 7%. Moreover, the “Intact mitochondria [%] in HL-60 cells after 72 h” value in the data set with HL-60 cells [4] is on record as 61 ± 13%.

Consider `COc1cc(-c2ncn(C)c2-c2ccc(N(C)C)cc2)cc(Br)c1OC` [compound 6d, 1-Methyl-4-(3′-bromo-4′,5′-dimethoxyphenyl)-5-(4″-N,N-dimethylaminophenyl)-imidazole], for which, in the data set with 518A2 cells [1], the “NBT Reduction [%] in 518A2 cells after 24 h” value is recorded as 1.6 ± 0.3%. In addition, the “NBT Reduction [%] in HL-60 cells after 24 h” value with HL-60 cells [2] is reported as 6.7 ± 0.8%. In the data set with 518A2 cells [3], the “Intact mitochondria [%] in 518A2 cells after 72 h” value was 82 ± 7%. The “Intact mitochondria [%] in HL-60 cells after 72 h” value in the data set on HL-60 cells [4] is 63 ± 13%.

Turning to `COc1ccc(-c2c(-c3cc(N)c(OC)c(OC)c3)ncn2C)cc1O` [8c, 1-Methyl-4-(3′-amino-4′,5′-dimethoxyphenyl)-5-(3″-hydroxy-4-methoxyphenyl)-imidazole], the “NBT Reduction [%] in 518A2 cells after 24 h” value in the data set with 518A2 cells [1] was 1.1 ± 0.0%. Besides, the “NBT Reduction [%] in HL-60 cells after 24 h” value in the data set with HL-60 cells [2] turned out to be 1.8 ± 0.3%. For the same molecule, in the data set on 518A2 cells [3], the “Intact mitochondria [%] in 518A2 cells after 72 h” value was 94 ± 7%. Also, in the data set on HL-60 cells [4], the “Intact mitochondria [%] in HL-60 cells after 72 h” value amounted to 76 ± 19%.

Consider `COc1cc(-c2ncn(C)c2-c2ccc3c(c2)c(Cl)cn3C)cc(N)c1OC` [compound 8e, 1-methyl-4-(3-amino-4,5-dimethoxyphenyl)-5-(N-methyl-3-chloroindol-5-yl)-imidazole], for which the “efficacy (comparison)” value in data set [5] was “greater efficacy than 25f and 5b/6b”. Further, the “cytotoxicity / efficacy (comparison)” value in data set [6] is “greater efficacy than 25f and 5b/6b”. Moreover, the “NBT Reduction [%] in 518A2 cells after 24 h” value in the data set on 518A2 cells [1] stood at 1.6 ± 0.3%. In addition, in the data set with HL-60 cells [2], the “NBT Reduction [%] in HL-60 cells after 24 h” value is 6.4 ± 0.3%. Moreover, in the data set on 518A2 cells [3], the “Intact mitochondria [%] in 518A2 cells after 72 h” value came out at 77 ± 8%. Further, the “Intact mitochondria [%] in HL-60 cells after 72 h” value in the data set on HL-60 cells [4] is 60 ± 15%.
